Reference: patent US20220056019A1, “FARNESOID X RECEPTOR AGONISTS AND USES THEREOF” (Metacrine, Inc., priority 2018, published 2022)

Biological target: T1, hFXR (Homo sapiens, UniProt Q96RI1)
T1 construct: expressed in transfected cells; host or cells: CV-1 cells
T1 sequence (Q96RI1 1-486): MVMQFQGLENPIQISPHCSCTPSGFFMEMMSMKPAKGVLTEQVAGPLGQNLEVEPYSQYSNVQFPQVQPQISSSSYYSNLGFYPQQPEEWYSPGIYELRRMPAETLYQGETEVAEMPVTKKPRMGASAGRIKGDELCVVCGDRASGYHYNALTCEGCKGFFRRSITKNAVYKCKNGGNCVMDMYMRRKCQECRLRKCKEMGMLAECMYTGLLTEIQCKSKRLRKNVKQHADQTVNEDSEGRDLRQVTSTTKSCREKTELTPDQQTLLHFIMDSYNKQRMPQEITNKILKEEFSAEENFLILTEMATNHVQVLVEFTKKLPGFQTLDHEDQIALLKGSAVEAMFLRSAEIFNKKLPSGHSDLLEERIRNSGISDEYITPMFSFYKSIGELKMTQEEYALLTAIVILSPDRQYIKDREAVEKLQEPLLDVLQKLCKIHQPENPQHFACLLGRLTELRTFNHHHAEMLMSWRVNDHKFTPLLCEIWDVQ
T1 sequence (P19793 1-462 partner): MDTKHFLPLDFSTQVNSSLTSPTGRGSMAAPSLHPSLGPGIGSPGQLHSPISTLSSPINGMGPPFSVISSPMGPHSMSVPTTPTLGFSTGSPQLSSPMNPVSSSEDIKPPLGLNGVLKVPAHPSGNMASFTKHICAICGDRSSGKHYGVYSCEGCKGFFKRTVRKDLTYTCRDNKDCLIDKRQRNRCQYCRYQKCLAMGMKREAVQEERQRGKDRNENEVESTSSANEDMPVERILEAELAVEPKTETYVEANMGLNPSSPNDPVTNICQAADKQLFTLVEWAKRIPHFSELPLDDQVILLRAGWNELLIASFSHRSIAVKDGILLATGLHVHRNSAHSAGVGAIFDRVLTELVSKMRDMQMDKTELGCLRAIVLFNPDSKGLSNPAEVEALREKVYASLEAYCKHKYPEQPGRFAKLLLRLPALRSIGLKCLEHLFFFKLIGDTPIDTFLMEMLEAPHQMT
Experiment: In Vitro FXR Assay (TK): TK-ECRE-luc reporter in transfected CV-1 cells
Type: cell-based
Conditions: 18 hrs incubation, luminescence
In short: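 CV-1, DMEM/10% charcoal-stripped FBS, 37 °C 5% CO2. Transfection O/N: hFXR + hRXR + TK-ECRE-luc + pCMX-YFP. Cpds (DMSO serial dil.) 18 h; lyse, read luminescence.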

| EC50 | Compound |
| --- | --- |
| ≤ 50 nM | COc1ccc(C23CCC(CN(c4cc(-c5cnn(C(C)C)c5)ccn4)C(=O)[C@H]4CC[C@H](OC(=O)N5CC(OC)C5)CC4)(CC2)CC3)cc1C [Compound 4.47, 4-((4-(1-Isopropyl-1H-pyrazol-4-yl)pyridin-2-yl) ((4-(4-methoxy-3-methylphenyl)bicyclo [2.2.2]octan-1-yl)methyl)carbamoyl)(trans-cyclohexyl) 3-methoxyazetidine-1-carboxylate] |
| ≤ 50 nM | COc1ccc([C@H]2CC[C@H](CN(c3cccc(-c4cnn(C(C)C)c4)c3)C(=O)[C@H]3CC[C@H](OC(=O)NC(C)C)CC3)CC2)cc1C [Compound 5.10, trans-4-((3-(1-Isopropyl-1H-pyrazol-4-yl)phenyl)((trans-4-(4-methoxy-3-methylphenyl)cyclohexyl)methyl)carbamoyl)cyclohexyl isopropylcarbamate] |
| ≤ 50 nM | COc1ccc([C@H]2CC[C@H](CN(c3cccc(-c4cnn(C(C)C)c4)c3)C(=O)[C@H]3CC[C@H](OC(=O)NCC(C)F)CC3)CC2)cc1C (stereo partly drawn) [Compound 5.05, trans-4-((3-(1-Isopropyl-1H-pyrazol-4-yl)phenyl)(((trans)-4-(4-methoxy-3-methylphenyl)cyclohexyl)methyl)carbamoyl)cyclohexyl (2-fluoropropyl)carbamate] |
| ≤ 50 nM | COc1ccc(C23CCC(CN(c4cc(-c5cnn(C(C)C)c5)ccn4)C(=O)[C@H]4CC[C@H](OC(=O)N5CC(OCCO)C5)CC4)(CC2)CC3)cc1C [Compound 4.10, 4-((4-(1-Isopropyl-1H-pyrazol-4-yl)pyridin-2-yl)((4-(4-methoxy-3-methylphenyl)bicyclo [2.2.2]octan-1-yl)methyl)carbamoyl)cyclohexyl 3-(2-hydroxyethoxy) azetidine- trans-1-carboxylate] |
| ≤ 50 nM | O=C(O[C@H]1CC[C@H](C(=O)N(C[C@H]2CC[C@H](c3cc4ccccn4c3)CC2)c2cccc(-c3cnc(C4CC4)s3)c2)CC1)N1CC(O)C1 [Compound 5.14, trans-4-((3-(2-Cyclopropylthiazol-5-yl)phenyl)((trans-4-(indolizin-2-yl)cyclohexyl)methyl)carbamoyl) cyclohexyl 3-hydroxyazetidine-1-carboxylate] |
| ≤ 50 nM | COc1ccc([C@H]2CC[C@H](CN(c3cc(-c4cnn(C(C)C)c4)ccn3)C(=O)[C@H]3CC[C@H](OC(=O)NCC(C)(C)O)CC3)CC2)cc1Cl [Compound 2.05, (trans)-4-((((trans)-4-(3-Chloro-4-methoxyphenyl)cyclohexyl)methyl)(4-(1-isopropyl-1H-pyrazol-4-yl)pyridin-2-yl)carbamoyl)cyclohexyl (2-hydroxy-2-methylpropyl)carbamate] |
| ≤ 50 nM | COc1ccc(C23CCC(CN(c4cc(-c5cnn(C(F)(F)F)c5)ccn4)C(=O)[C@H]4CC[C@H](OC(=O)N5CC(O)C5)CC4)(CC2)CC3)cc1C [Compound 4.19, 4-(((4-(4-Methoxy-3-methylphenyl)bicyclo [2.2.2]octan-1-yl)methyl) (4-(1-(trifluoromethyl)-1H-pyrazol-4-yl)pyridin-2-yl)carbamoyl) cyclohexyl 3-hydroxyazetidine-trans-1-carboxylate] |
| ≤ 50 nM | CC(C)n1cc(-c2ccnc(N(CC34CCC(c5ccc(N(C)C)nc5)(CC3)CC4)C(=O)[C@H]3CC[C@H](OC(=O)N4CC(O)C4)CC3)c2)cn1 [Compound 4.57, 4-(((4-(6-(Dimethylamino)pyridin-3-yl)bicyclo[2.2.2]octan-1-yl)methyl)(4-(1-isopropyl-1H-pyrazol-4-yl)pyridin-2-yl)carbamoyl) (trans-cyclohexyl) 3-hydroxyazetidine-1-carboxylate] |
| ≤ 50 nM | CC(C)c1ccc(C23CCC(CN(c4cc(-c5cnn(C(C)C)c5)ccn4)C(=O)[C@H]4CC[C@H](OC(=O)N5CC(O)C5)CC4)(CC2)CC3)cc1 [Compound 26.10, 4-((4-(1-Isopropyl-1H-pyrazol-4-yl)pyridin-2-yl)((4-(4-isopropylphenyl)bicyclo[2.2.2]octan-1-yl)methyl)carbamoyl)cyclohexyl trans-3-hydroxyazetidine-1-carboxylate] |
| ≤ 50 nM | COc1ccc(C23CCC(CN(c4cc(-c5cnn(C6(C)CCC6)c5)ccn4)C(=O)[C@H]4CC[C@H](OC(=O)N5CC(CO)C5)CC4)(CC2)CC3)cc1C [Compound 25.21, 4-(((4-(4-Methoxy-3-methylphenyl)bicyclo[2.2.2]octan-1-yl)methyl)(4-(1-(1-methylcyclobutyl)-1H-pyrazol-4-yl)pyridin-2-yl)carbamoyl)(trans-cyclohexyl) 3-(hydroxymethyl)azetidine-1-carboxylate] |
| 50 to 1000 nM | COc1ccc(C23CCC(CN(c4cnnc(-c5cnn(C(C)C)c5)c4)C(=O)[C@H]4CC[C@H](OC(=O)N5CC(O)C5)CC4)(CC2)CC3)cc1C [Compound 4.61, 4-((6-(1-Isopropyl-1H-pyrazol-4-yl)pyridazin-4-yl)((4-(4-methoxy-3-methylphenyl)bicyclo [2.2.2]octan-1-yl)methyl)carbamoyl)(trans-cyclohexyl) 3-hydroxyazetidine-1-carboxylate] |
| ≤ 50 nM | COc1ccc([C@H]2CC[C@H](CN(c3cc(-c4cnn(C(C)C)c4)ccn3)C(=O)[C@H]3CC[C@H](OC(=O)N4CC(N(C)C)C4)CC3)CC2)cc1C [Compound 2.13, trans-4-((4-(1-Isopropyl-1H-pyrazol-4-yl)pyridin-2-yl)(((trans)-4-(4-methoxy-3-methylphenyl)cyclohexyl)methyl)carbamoyl) cyclohexyl 3-(dimethylamino)azetidine-1-carboxylate] |
| ≤ 50 nM | COc1ccc(C23CCC(CN(c4cc(-c5cnn(C(C)C)c5)ccn4)C(=O)[C@H]4CC[C@H](OC(=O)N(C)CCO)CC4)(CC2)CC3)cc1C [Compound 4.51, 4-((4-(1-Isopropyl-1H-pyrazol-4-yl)pyridin-2-yl) ((4-(4-methoxy-3-methylphenyl)bicyclo [2.2.2]octan-1-yl)methyl)carbamoyl)cyclohexyl (2-hydroxyethyl)(methyl) trans-carbamate] |
| ≤ 50 nM | CCS(=O)(=O)NC[C@H]1CC[C@H](C(=O)N(C[C@H]2CC[C@H](c3ccc(OC)c(C)c3)CC2)c2cccc(-c3cnn(C(C)C)c3)c2)CC1 [Compound 12, (trans)-4-(Ethylsulfonamidomethyl)-N-(3-(1-isopropyl-1H-pyrazol-4-yl)phenyl)-N-(((trans)-4-(4-methoxy-3-methylphenyl)cyclohexyl)methyl)cyclohexanecarboxamide] |
| ≤ 50 nM | COc1ccc(C23CCC(CN(c4cc(-c5cnn(C(C)C)c5)c(F)cn4)C(=O)[C@H]4CC[C@H](OC(=O)N5CC(C#N)C5)CC4)(CC2)CC3)cc1C [Compound 25.12, 4-((5-Fluoro-4-(1-isopropyl-1H-pyrazol-4-yl)pyridin-2-yl)((4-(4-methoxy-3-methylphenyl)bicyclo[2.2.2]octan-1-yl)methyl)carbamoyl)cyclohexyl trans-3-cyanoazetidine-1-carboxylate] |
| ≤ 50 nM | COc1ccc(C23CCC(CN(c4cc(-c5cnn(C(C)C)c5)c(Cl)cn4)C(=O)[C@H]4CC[C@H](OC(=O)N5CC(O)C5)CC4)(CC2)CC3)cc1C [Compound 26.01, 4-((5-Chloro-4-(1-isopropyl-1H-pyrazol-4-yl)pyridin-2-yl)((4-(4-methoxy-3-methylphenyl)bicyclo[2.2.2]octan-1-yl)methyl)carbamoyl)(trans-cyclohexyl) 3-hydroxyazetidine-1-carboxylate] |
